Test [1] relates to Escherichia coli. The test is described as follows: Induction of strand scission in pBR322 DNA in presence of ferrous ion.
The test system of test [2] is Escherichia coli. The test can be described thus: Induction of strand scission in pBR322 DNA assessed as formation of linear duplex and nicked form at 100 uM in presence of copper.
Test [3] concerns Escherichia coli. The test is described as follows: Induction of strand scission in pBR322 DNA in presence of copper.
In test [4] the test system is Escherichia coli. The test is described as follows: Induction of strand scission in pBR322 DNA assessed as conversion from supercoiled form to nicked circular form at 50 uM in presence of copper.

Activity calls are given as the source filed them. The rule behind the calls is not given here.

On to `CC(C)=CCc1c(O[C@@H]2O[C@H](CO)[C@@H](O)[C@H](O)[C@H]2O)cc(O)c2c1O[C@H](c1ccc(O)cc1)[C@@H](O)C2=O`, for which the outcome with Escherichia coli [1] was inactive. For the same molecule, the outcome in the test on Escherichia coli [2] was Active. The Activity result with Escherichia coli [3] was “Dose-dependent effect”; in the test with Escherichia coli [4], 62%.

These data come from ChEMBL document CHEMBL1158687, “A dihydroflavonol glucoside from Commiphora africana that mediates DNA strand scission” (J Nat Prod, 2005).
